Data published in publication PMC11073428, “The activity of pyrazolo[4,3-e][1,2,4]triazine and pyrazolo[4,3-e]tetrazolo[1,5-b][1,2,4]triazine sulphonamide derivatives in monolayer and spheroid breast cancer cell cultures” (Journal of Enzyme Inhibition and Medicinal Chemistry, 2024).

Experiments:
[1] = test system: MDA-MB-231 spheroids; experiment: 3D spheroid culture, MDA-MB-231; type: cell-based, human; settings: 0.25 µM and 0.5 µM
Protocol: (§1) The 3D cell culture was carried out with 6-Well Bio-Assembler Kit in accordance with the manufacturer’s instructions (Greiner Bio-One GmbH, Frickenhausen, Germany). First, MCF-7 and MDA-MB-231 were cultured in 2D using procedure and supplied to 80% confluency and treated with nanoshuttle at concentration of 1 µL/10 000 cell and incubated overnight. Following incubation, the medium was removed, and the cells were detached by trypsin–EDTA solution and resuspended in DMEM. The cells were counted using Scepter 2.0 Handheld Automated Cell Counter (Merck, Darmstadt, Germany) and plated at the concentration 1 × 10^6 cells per well in six-well plate. Then, cells were gently tilted in the flask to evenly distribute the nanoparticle and incubated (37 °C, 5% CO2, 95–98% humidity) for 1 h with magnet on the top of the plate. The cells self-assemble to spheroids. The obtained 3D cell culture was incubated until analysis.
(§2) The visualisation of the morphological changes in 3D cell culture of MCF-7 and MDA-MB-231 was evaluated using microscope (Nikon Eclipse Ti, Tokyo, Japan).
(§3) The mean ± standard deviation (SD) for all data is presented. One-way and two-way analysis of variance (ANOVA) was conducted followed by Dunnett’s test. GraphPad 8.0.1 Prism software (GraphPad Software, San Diego, CA) was used for calculation. The analysis of spheroids area was carried out using ImageJ software from the NIH (Bethesda, MD).

[2] = test system: ROS in MDA-MB-231 cells; experiment: Total ROS activity, flow cytometry, MDA-MB-231; type: cell-based, human; settings: for cells with ROS: 24 h
Protocol: In brief, cells were washed two times with cold PBS solution and incubated in a solution of ROS Green dye in Assay Buffer and incubated for 1 h in optimal cell growth parameters, protected from light. After incubation, cells were washed with assay buffer. Subsequently, fluorescence emission intensities at 490 nm excitation and 520 nm emission were recorded in 500 μL assay buffer using flow cytometer BD FACSCanto II flow cytometer and FACSDiva software (BD Biosciences Systems, San Jose, CA).

[3] = test system: MDA-MB-231 breast cancer cells; experiment: Apoptosis, annexin V-FITC/PI flow cytometry, MDA-MB-231; type: cell-based, human; settings: 24 h
Protocol: (§4) The analysis was performed using flow cytometry Apoptosis Detection Kit II (BD Biosciences, San Diego, CA) as described previously.

[4] = test system: MDA-MB-231 breast cancer cells; experiment: MTT viability assay, MDA-MB-231
Protocol: Following 24-h incubation with tested compounds, the medium was discarded from the cell cultures. Then, into each well with cells was added 1 mL of PBS and 50 µL of MTT solution (5 mg per mL). Cells were incubated at 37 °C and 5% CO2 in humidified atmosphere for a defined time appropriate for each cell line. After incubation, the solution above the cells was removed and obtained purple formazan crystals were dissolved in 1 mL DMSO. The absorbance was read at OD = 570 nm on Evolution 201 Spectrophotometer (Thermo Scientific, Waltham, MA).

[5] = test system: MCF-7 spheroids; experiment: 3D spheroid culture, MCF-7; type: cell-based, human
Protocol: as §1, §2, §3

[6] = test system: MCF-7 breast cancer cells; experiment: Autophagy Assay, Red, flow cytometry, MCF-7; type: cell-based, human
Protocol: The effect of novel compound 3b at 0.25 µM and 0.5 µM concentration on the induction of autophagy in MCF-7 and MDA-MB-231 pre-treated 1 h with or not autophagy inhibitor 3-MA for 1 h (3-methyladenine, Sigma-Aldrich, St. Louis, MO) at 1 mM concentration[29] was assessed by ICT’s Autophagy Assay, Red using a flow cytometer. The test was performed as previously. Briefly, cells were washed with PBS and suspended in 490 µL of PBS. To each probe, 10 µL of diluted Autophagy Probe, Red solution was added. Prepared samples were incubated at 37 °C for 60 min. Following incubation, cells were suspended in diluted cellular assay buffer and centrifuged. Then, supernatant was removed, and cells were resuspended in diluted cellular assay buffer and centrifuged again. This step was repeated three times. Finally, cell pellet was resuspended in 0.5 mL of diluted cellular assay buffer. The analysis was performed with a flow cytometer (excitation/emission 590 nm/620 nm).

[7] = test system: MCF-7 breast cancer cells; experiment: Apoptosis, annexin V-FITC/PI flow cytometry, MCF-7; type: cell-based, human; settings: 24 h
Protocol: as §4

[8] = test system: p53 in MCF-7 cells; experiment: Anti-p53 antibody flow cytometry, MCF-7; type: cell-based, human; settings: MCF-7, 0.25 µM and 0.5 µM, 24 h
Protocol: (§5) To evaluate the molecular mechanism of induction of apoptosis of tested compounds, the level of p53, NF-κB, mTOR, Bax, and beclin-1 was measured using appropriate antibody according to the manufacturer’s instruction. In brief, tryspinised cells were centrifuged, then supernatant was discarded, and cells were suspended in 4% FA (formaldehyde). Prepared samples were incubated 15 min at RT. Following incubation, the 2.5 mL PBS was added to each sample and centrifuged. Then, supernatant was discarded, and cells were resuspended in 90% ice-cold methanol to perform permeabilisation and left for 1 h in ice. To remove methanol, cells were rinsed with excess PBS by centrifugation. Following centrifugation, the supernatant was discarded. Then, cells were resuspended in 100 µL of appropriate diluted (1:100 in PBS) antibody conjugate (p53 (7F5) Rabbit mAb – Alexa Fluor 488 Conjugate #5429 Cell Signalling Technology, Danvers, MA; NF-κB p65 (D14E12) XP Rabbit mAb – Alexa Fluor 647 Conjugate #8801 Cell Signalling Technology, Danvers, MA; mTOR (7C10) Rabbit mAB – Alexa Fluor 647 #5048 Cell Signalling Technology, Danvers, MA; FITC Anti-Bax antibody (T22-A) #ab139543, Abcam, Cambridge, UK) and incubated 1 h in the dark at RT. Afterwards, cells were washed by centrifugation in 2 mL of incubation buffer. Finally, supernatant was removed and 300 µL PBS was added to each sample and pipetted. […]

[9] = test system: beclin-1 in MCF-7 cells; experiment: Anti-beclin-1 antibody flow cytometry, MCF-7; type: cell-based, human; settings: MCF-7, 0.5 µM, 24 h
Protocol: The fixation and permeabilisation were performed as described above. Cells were resuspended in 100 µL of diluted primary antibody (1:100 in PBS, anti-beclin 1 antibody (2A4) #ab114071, Abcam, Cambridge, UK) and incubated 30 min in the dark at RT. The cells were washed three times by centrifugation in PBS. Then to each probe, 100 µL of diluted fluorochrome-labelled secondary antibody (1:100 in PBS; goat anti-mouse IgG H&L – Alexa Fluor 488 #ab150113, Abcam, Cambridge, UK) was added and incubated 30 min in dark at RT. Then, cells were rinsed with 2.5 mL PBS. In the last step, supernatant was discarded and cells were resuspended in 300 µL PBS and pipetted. The analysis was carried out by flow cytometry.

[10] = test system: NF-κB in MCF-7 cells; experiment: Anti-NF-κB antibody flow cytometry, MCF-7; type: cell-based, human; settings: 24 h, control 97.2 ± 0.6%
Protocol: as §5

Cc1nn(-c2ccc(S(=O)(=O)N[C@@H](CO)Cc3ccccc3)cc2)c2nn3nnnc3nc12 [Compound 3b, (R)-N-(1-hydroxy-3-phenylpropan-2-yl)-4-(7-methyl-5H-pyrazolo[4,3-e]tetrazolo[1,5-b][1,2,4]triazin-6-yl)benzenesulfonamide]
effect on spheroid formation (in words) [1]: slower formation of spheroids compared to untreated cells
cells with ROS ([2]; MDA-MB-231, 0.25 µM): 7.0 ± 0.6%
increase of ROS level compared to control ([2]; MDA-MB-231, 0.5 µM): four
cells with ROS ([2]; MDA-MB-231, 0.5 µM): 9.4 ± 0.7%
apoptotic cells ([3]; MDA-MB-231, 0.25 µM): 11.8 ± 1.3%
early and late apoptotic cells ([3]; MDA-MB-231, 0.5 µM): 29.5 ± 0.9%
IC50 ([4]; Homo sapiens, MDA-MB-231, 24 h, read-out: Cytotoxicity IC50 MDA-MB-231): 0.31 ± 0.14 µM
times stronger than the corresponding sulphonyl derivative (2a or 2b), MDA-MB-231 ([4]; ratio of cytotoxicity, 3a vs 2a, 3b vs 2b): 25 times
effect on spheroid formation (in words) ([5]; 0.25 µM and 0.5 µM): slower formation of spheroids compared to untreated cells
spheroids smaller compared to the control ([5]; 0.5 µM, 24 h): approximately 86.37 ± 7.7%
autophagic cells ([6]; MCF-7, 0.5 µM, 24 h): 30 ± 2.1%
autophagic cells with 3-MA relative to 3b alone (in words) ([6]; MCF-7, 3b 0.5 µM + 3MA vs 3b 0.5 µM): one and a half times less autophagic cells
apoptotic cells ([7]; MCF-7, 0.25 µM): 50.6 ± 3.5%
early and late apoptotic cells ([7]; MCF-7, 0.5 µM): 98.9 ± 1.6%
effect on p53 (in words) [8]: activates p53
cells with active beclin-1 [9]: 13.9 ± 2.6%
cells with active NF-κB ([10]; MCF-7, 0.25 µM): 25.5 ± 4.5%
cells with active NF-κB ([10]; MCF-7, 0.5 µM): 19.8 ± 4.4%
